Measured values from US20080161232A1, “C5a Receptor Antagonist” (JERINI AG, priority 2005, published 2008).
Positions of bridges follow the written chain, without caps; N, C: chain ends. Non-standard residues stand in square brackets, D forms with d. Residues, ends and D or L forms follow the SMILES beside them. *: point of attachment. Phe(2-Cl) = N[C@@H](Cc1ccccc1Cl)C(=O)O; Phe(4-F) = N[C@@H](Cc1ccc(F)cc1)C(=O)O; Bta = N[C@@H](Cc1csc2ccccc12)C(=O)O; Hyp = O=C(O)[C@@H]1C[C@@H](O)CN1; NMeF = CN[C@@H](Cc1ccccc1)C(=O)O; d(hLeu) = CC(C)CC[C@@H](N)C(=O)O; hArg = N=C(N)NCCCC[C@H](N)C(=O)O; dCha = N[C@H](CC1CCCCC1)C(=O)O; Chg = N[C@H](C(=O)O)C1CCCCC1; Nle = CCCC[C@H](N)C(=O)O; Orn = NCCC[C@H](N)C(=O)O; Aze = O=C(O)[C@@H]1CCN1; Fluoroacetyl = O=C(CF)*; X16 = c1ccc(C*)nc1; tBu = CC(C)(C)*

target: T1, human C5aR(CD88) (Homo sapiens, UniProt P21730); experiment: Determination of the IC50 value in an enzyme release assay (functional assay, antagonistic activity); assay type: cell-based; settings: activity (group), antagonistic activity; IC50 group in enzyme release assay, RBL cells expressing human C5aR(CD88)
T1 construct: expressed in transfected cells; host or cells: rat basophilic leukemia cells (RBL)
T1 sequence (P21730 1-350): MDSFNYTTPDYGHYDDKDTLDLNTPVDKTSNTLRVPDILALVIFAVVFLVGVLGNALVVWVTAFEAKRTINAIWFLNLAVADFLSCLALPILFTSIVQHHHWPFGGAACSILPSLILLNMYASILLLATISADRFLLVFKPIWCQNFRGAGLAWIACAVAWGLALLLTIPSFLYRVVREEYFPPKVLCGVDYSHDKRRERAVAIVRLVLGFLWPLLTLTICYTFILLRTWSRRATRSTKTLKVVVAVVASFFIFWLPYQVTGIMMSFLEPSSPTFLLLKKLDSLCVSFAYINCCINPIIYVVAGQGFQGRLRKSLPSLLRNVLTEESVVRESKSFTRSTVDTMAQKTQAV

For `NCCC[C@H](NC(=O)[C@H](Cc1ccccc1)NC(=O)CF)C(=O)N1CC[C@H]1C(=O)N[C@H](CC1CCCCC1)C(=O)N[C@@H](Cc1csc2ccccc12)C(=O)N[C@@H](Cc1ccccc1)C(N)=O` [Compound 321, FAc-Phe-Orn-Aze-cha-Bta-Phe-NH2] (Fluoroacetyl-F[Orn][Aze][dCha][Bta]F-NH2), the IC50 was 20 to 50 nM.

same assay, conditions: antagonistic activity; IC50 group in enzyme release assay, RBL cells expressing human C5aR(CD88); read-out: activity (group)

`CC(C)CC[C@H]1NC(=O)[C@@H]2C[C@@H](O)CN2C(=O)[C@@H](NC(=O)[C@@H](N)Cc2ccccc2)CCCNC(=O)[C@H](C2CCCCC2)NC(=O)[C@H](Cc2ccc(F)cc2)NC1=O` [Compound 362, H-Phe-[Orn-Hyp-hle-Pff-Chg]] (H-F[Orn][Hyp][d(hLeu)][Phe(4-F)][Chg]; lactam 2-C) and `CC(C)CC[C@H]1NC(=O)[C@@H]2CCCN2C(=O)[C@@H](NC(=O)[C@@H](N)Cc2ccccc2)CCCNC(=O)[C@H](Cc2ccccc2)NC(=O)[C@H](Cc2ccccc2Cl)NC1=O` [Compound 378, H-Phe-[Orn-Pro-hle-Ocf-Phe]] (H-F[Orn]P[d(hLeu)][Phe(2-Cl)]F; lactam 2-C) fall in the same range of IC50: 50 to 200 nM for the first, 50 to 200 nM for the second.

First: CC(=O)N[C@@H](Cc1ccccc1)C(=O)N[C@H]1CCCNC(=O)[C@H](CSCc2ccccn2)NC(=O)[C@H](Cc2c[nH]c3ccccc23)NC(=O)[C@@H](CC2CCCCC2)NC(=O)[C@@H]2CCCN2C1=O [compound 18] (Ac-F[Orn]P[dCha]WC(X16); lactam 2-C)
Second: CCCC[C@@H]1NC(=O)[C@H](Cc2c[nH]c3ccccc23)NC(=O)[C@@H](CSC(C)(C)C)NC(=O)[C@@H]2C[C@@H](O)CN2C(=O)[C@@H](NC(=O)[C@@H](N)Cc2ccccc2)CCCNC1=O [Compound 359, H-Phe-[Orn-Hyp-ctb-Trp-Nle]] (H-F[Orn][Hyp][dC](tBu)W[Nle]; lactam 2-C)
The IC50 of the first is higher: 200 to 2000 nM for the first, 20 to 50 nM for the second. The second is the more potent here.

First: CCCC[C@H](NC(=O)[C@H](Cc1ccccc1)NC(C)=O)C(=O)N1CCC[C@H]1C(=O)N[C@H](CC1CCCCC1)C(=O)N[C@@H](Cc1csc2ccccc12)C(=O)N[C@@H](Cc1ccccc1)C(N)=O [Compound 120, Ac-Phe-Nle-Pro-cha-Bta-Phe-NH2] (Ac-F[Nle]P[dCha][Bta]F-NH2)
Second: CC(=O)N[C@@H](Cc1ccccc1)C(=O)N[C@@H](CCCCNC(=N)N)C(=O)N1CC[C@H]1C(=O)N[C@H](CC1CCCCC1)C(=O)N[C@@H](Cc1csc2ccccc12)C(=O)N[C@@H](Cc1ccccc1)C(N)=O [Compound 229, Ac-Phe-Har-Aze-cha-Bta-Phe-NH2] (Ac-F[hArg][Aze][dCha][Bta]F-NH2)
The IC50 of the first is higher: 50 to 200 nM for the first, 10 to 20 nM for the second.

`CC(=O)N[C@@H](Cc1ccccc1)C(=O)N[C@@H](CCCN)C(=O)N1CCC[C@H]1C(=O)N[C@H](CCC(C)C)C(=O)N[C@@H](Cc1c[nH]c2ccccc12)C(=O)N[C@@H](Cc1ccccc1)C(N)=O` [Compound 306, Ac-Phe-Orn-Pro-hle-Trp-Phe-NH2] (Ac-F[Orn]P[d(hLeu)]WF-NH2) and `CC(=O)N(C)[C@@H](Cc1ccccc1)C(=O)N[C@@H](CCCN)C(=O)N1CCC[C@H]1C(=O)N[C@H](CC1CCCCC1)C(=O)N[C@@H](Cc1csc2ccccc12)C(=O)N[C@@H](Cc1ccccc1)C(N)=O` [Compound 165, Ac-NMF-Orn-Pro-cha-Bta-Phe-NH2] (Ac-[NMeF][Orn]P[dCha][Bta]F-NH2) fall in the same range of IC50: 50 to 200 nM for the first, 50 to 200 nM for the second.

In the case of `CC(=O)N[C@@H](Cc1c[nH]cn1)C(=O)N[C@@H](Cc1ccccc1)C(=O)N[C@@H](CCCN)C(=O)N1CC[C@H]1C(=O)N[C@H](CC1CCCCC1)C(=O)N[C@@H](Cc1csc2ccccc12)C(=O)N[C@@H](Cc1ccccc1)C(N)=O` [Compound 138, Ac-His-Phe-Orn-Aze-cha-Bta-Phe-NH2] (Ac-HF[Orn][Aze][dCha][Bta]F-NH2), the IC50 is reported as 50 to 200 nM.
